Measurements as given in patent US4563470A, “N-Substituted α,ωamino and imino-sulfonic acid salts and their application as cationic vectors of high cellular penetration” (Les Laboratories Meram, priority 1982, dated 1986).
Like-named read-outs stand apart in the source and are kept apart here.

How the values were obtained:
Solubility = assay type: physicochemical; conditions: for solubility in alcohol / ethanol: alcohol or ethanol
in vivo = conditions: mouse, in vivo; for selectivity ratio: B/P ratio (oral LD50 / i.p. LD50)
Protocol: (§1) The study is carried out with Swiss I.O.P.S. mice, in lots of 20 animals of both sexes.

Swiss I.O.P.S. mice = test: in vivo; conditions: Swiss I.O.P.S. mouse; for LD50 by gastric tubage (B): oral
Protocol: as §1

[1] = system: Sprague-Dawley I.O.P.S. rat; test: Acute toxicity LD50 oral vs i.p. and B/P ratio, rat; assay type: in vivo
Source text: (§2) It has been determined that this discovery is not appropriate to a particular animal, by making the same observation for the Sprague-Dawley I.O.P.S. rat where the B/P ratio for magnesium chloride is greater than […]. For the respective compounds of Examples 13 and 14, the ratio is reduced in a most significant manner (p<0.001), to 3.3/2.2=1.5 and […].

[2] = as above; assay type: in vivo; conditions: in vivo, Sprague-Dawley I.O.P.S. rat
Source text: as §2

[3] = system: Sprague-Dawley I.O.P.S. rats; test: Oral magnesium recharge in magnesium-deficient rats; assay type: in vivo, rat (Sprague-Dawley I.O.P.S.); conditions: for onset of correction of erythrocyte magnesium: 40, 20 or 5 mg magnesium/kg/day; for aggression of deficient rats with respect to mice (muricide activity): magnesium-deficient rats (25 ppm Mg); for erythrocyte magnesium level (hypercorrection): third day, deficient animals 40 mg, controls 60 mg
[4] = Acute toxicity LD50 oral vs i.p. and B/P ratio, sodium salts (species not restated); assay type: in vivo; conditions: for selectivity ratio / LD50: in vivo
Source text: While the ratio for the reference salt, sodium chloride, is greater than 205.4/61.2=3.36, it is, for the imino compounds of Examples 1 and 5 7.0/3.0=2.33 and 6.7/4.4=1.52, respectively, and, for the amino compounds of Examples 2 and 6 (while not strictly determined but without doubt greater than 1), respectively greater than 20.1/20.1=1 and greater than […].

[5] = Therapeutic use in a patient with latent tetany by magnesium deficiency; assay type: in vivo, human
Protocol: was attacked by latent tetany by magnesium deficiency. They were treated for two years by various forms of magnesotherapy: 3 g magnesium lactate per day or three drinkable ampoules of magnesium pyroglutamate (standardised 127 mg Mg^2+ per ampoule) per day, without succeeding in correcting an erythrocyte magnesium level varying from 43 to 46 mg/l. A prescription of 3 gelatine-coated pills of the compound of Example 13 led to a regression of […] (headache, asthenia, cramp) and the increase, to 48 mg/l in the first month and to 53 mg/l in the second month, of the erythrocyte magnesium level. Ultimately, it was nevertheless observed that each interruption in administration of the product was followed, in the subsequent chemical and biological monthly control, by a relapse (comprising the symptomotology and reduction of the erythrocyte magnesium level to about 45 mg/l).

insulin = test: Potentiation of the hypoglycemic activity of insulin (test of Macallum et al.); assay type: in vivo, rabbit; conditions: for oral activity after the metabolic and neurologic tests: summary of insulin potentiation and kainic acid tests; for potentiation of the hypoglycemic activity of insulin, intravenous / potentiation of the hypoglycemic activity of insulin, oral: intravenous; for potentiation of the hypoglycemic activity of insulin, oral: non-convulsant dose of insulin
Protocol: (§3) By way of example, the compounds are tested, on one hand by the test of Macallum et al., Can.

[6] = kainic acid administered systemically to the rat; Fariello et al. 1980; cited from earlier work
[7] = Antagonism of neurotoxic/convulsant activity of kainic acid, wet dog shaking (test of Fariello et al.); assay type: in vivo, rat; conditions: per os
Protocol: as §3

[8] = Test of Frances et al. (ED50 rolling, trembling)
[9] = ip, LD50 i.p. (P), Swiss I.O.P.S. mouse
[10] = po, LD50 by gastric tubage (B), Swiss I.O.P.S. mouse
[11] = ip, i.p., read-out: LD50 i.p. (P)
[12] = oral, read-out: LD50 by gastric tubage (B)
[13] = one patient, 3 gelatine-coated pills (750 mg, 32 mg Mg ion daily)

## Cc1ncc(CO)c(C=NCCS(=O)(=O)O)c1O [Example 9, Lithium β-(3-hydroxy-5-hydroxymethyl-2-methyl-4-pyridylmethyleneimino)ethanesulfonate]
Solubility; acetone
  solubility in acetone: Insoluble
Solubility; water
  solubility in water: Soluble

## Cc1ncc(CO)c(C=NCCS(=O)(=O)O)c1O [Example 11, Calcium β-(3-hydroxy-5-hydroxymethyl-2-methyl-4-pyridylmethyleneimino)ethanesulfonate]
In vivo; [9]
  LD50: 2600 µmol/kg
In vivo; [10]
  LD50: 7700 µmol/kg
Swiss I.O.P.S. mice
  B/P ratio (oral LD50 / i.p. LD50): 2.96

## [Cl-].[K+] [potassium chloride, reference compound]
Swiss I.O.P.S. mice
  B/P ratio (oral LD50 / i.p. LD50): > 7.25
  LD50 by gastric tubage (B): greater than 107.3 mmol/kg

## [Cl-].[Cl-].[Mg+2] [magnesium chloride, reference compound]
[1]
  B/P ratio (oral LD50 / i.p. LD50): > 8.99
[1]; oral
  LD50 by gastric tubage (B): greater than 39.3 mmol/kg
Swiss I.O.P.S. mice
  B/P ratio (oral LD50 / i.p. LD50): 2.04
  LD50 by gastric tubage (B): 19.2 mmol/kg

## Cc1ncc(CO)c(C=NCCCS(=O)(=O)O)c1O [Example 14, Magnesium γ-(3-hydroxy-5-hydroxymethyl-2-methyl-4-pyridylmethyleneimino)propanesulfonate]
[2]; [11]
  LD50: 2400 µmol/kg
[2]
  selectivity ratio: 1.66
[2]; [12]
  LD50: 4200 µmol/kg
Solubility; acetone
  solubility in acetone: Insoluble
Solubility
  solubility in methanol: Insoluble
Solubility; water
  solubility in water: Soluble
[3]
  onset of hypercorrection of erythrocyte magnesium: third day
  onset of correction of erythrocyte magnesium: first day
  aggression of deficient rats with respect to mice (muricide activity): reduced aggression
  erythrocyte magnesium level (hypercorrection): 75.8 mg
In vivo; ip
  LD50: 3300 µmol/kg
In vivo; po
  LD50: 4100 µmol/kg
Swiss I.O.P.S. mice
  B/P ratio (oral LD50 / i.p. LD50): 1.24

## Cc1ncc(CO)c(CNCCS(=O)(=O)[O-])c1O.[Li+]
Solubility
  solubility in acetone: Insoluble
  solubility in water: Soluble

## Cc1ncc(CO)c(C=NCCS(=O)(=O)O)c1O [Example 3, Potassium β-(3-hydroxy-5-hydroxymethyl-2-methyl-4-pyridylmethyleneimino)ethanesulfonate]
Swiss I.O.P.S. mice
  B/P ratio (oral LD50 / i.p. LD50): 1.79
  LD50 by gastric tubage (B): 7.0 mmol/kg

## Cc1ncc(CO)c(CNCCS(=O)(=O)[O-])c1O.[Na+] [Example 2, Sodium β-(3-hydroxy-5-hydroxymethyl-2-methyl-4-pyridylmethylamino)ethanesulfonate]
Solubility; acetone
  solubility in acetone: Insoluble
Solubility
  solubility in methanol: Poorly soluble
Solubility; water
  solubility in water: Soluble
[4]
  selectivity ratio: > 1
[4]; ip, read-out: LD50 i.p. (P)
  LD50: 20100 µmol/kg
[4]; [12]
  LD50: > 20100 µmol/kg

## Cc1ncc(CO)c(C=NCCCS(=O)(=O)O)c1O [Example 5, Sodium γ-(3-hydroxy-5-hydroxymethyl-2-methyl-4-pyridylmethyleneimino)propanesulfonate]
Solubility; acetone
  solubility in acetone: Insoluble
Solubility
  solubility in alcohol / ethanol: Insoluble
Solubility; water
  solubility in water: Soluble
[4]
  selectivity ratio: 1.52
[4]; ip, read-out: LD50 i.p. (P)
  LD50: 4400 µmol/kg
[4]; [12]
  LD50: 6700 µmol/kg

## Cc1ncc(CO)c(CNCCCS(=O)(=O)[O-])c1O.[Na+]
Solubility; acetone
  solubility in acetone: Insoluble
Solubility; water
  solubility in water: Soluble
[4]
  selectivity ratio: > 1.43
[4]; ip, read-out: LD50 i.p. (P)
  LD50: 13000 µmol/kg
[4]; [12]
  LD50: > 19200 µmol/kg

## Cc1ncc(CO)c(C=NCCS(=O)(=O)O)c1O [Example 13, Magnesium β-(3-hydroxy-5-hydroxymethyl-2-methyl-4-pyridylmethyleneimino)ethanesulfonate]
[2]; [11]
  LD50: 2200 µmol/kg
[2]
  selectivity ratio: 1.5
[2]; [12]
  LD50: 3300 µmol/kg
Solubility
  solubility in methanol: Insoluble
[3]
  onset of hypercorrection of erythrocyte magnesium: third day
  onset of correction of erythrocyte magnesium: first day
  aggression of deficient rats with respect to mice (muricide activity): reduced aggression
  erythrocyte magnesium level (hypercorrection): 79.2 mg
In vivo; ip
  LD50: 2800 µmol/kg
In vivo; po
  LD50: 3300 µmol/kg
Swiss I.O.P.S. mice
  B/P ratio (oral LD50 / i.p. LD50): 1.17
[5]; 750 mg daily (32 mg Mg ion) vs conventional magnesium salts at doses 10 times larger
  activity in controlling magnesium deficiency versus conventional magnesium salts: more active
[5]; one patient, 3 gelatine-coated pills
  symptoms (headache, asthenia, cramp): regression
[5]; [13]
  erythrocyte magnesium level, first month: 48 mg/L
  erythrocyte magnesium level, second month: 53 mg/L
[5]; one patient, relapse at subsequent monthly control
  erythrocyte magnesium level after interruption of administration: about 45 mg/l

## vitamin B6
insulin
  oral activity after the metabolic and neurologic tests: inactive

## Cc1ncc(CO)c(C=NCCCS(=O)(=O)O)c1O [Example 7, Potassium γ-(3-hydroxy-5-hydroxymethyl-2-methyl-4-pyridylmethyleneimino)propanesulfonate]
Solubility; acetone
  solubility in acetone: Insoluble
Solubility; water
  solubility in water: Soluble
Swiss I.O.P.S. mice
  B/P ratio (oral LD50 / i.p. LD50): 1.75
  LD50 by gastric tubage (B): 7.0 mmol/kg

## Cc1ncc(CO)c(C=NCCCS(=O)(=O)O)c1O [Example 12, Calcium γ-(3-hydroxy-5-hydroxymethyl-2-methyl-4-pyridylmethyleneimino)propanesulfonate]
Solubility; acetone
  solubility in acetone: Insoluble
Solubility
  solubility in methanol: Soluble
Solubility; water
  solubility in water: Soluble
In vivo; [9]
  LD50: 2400 µmol/kg
In vivo; [10]
  LD50: 8100 µmol/kg
Swiss I.O.P.S. mice
  B/P ratio (oral LD50 / i.p. LD50): 3.3

## NCCCS(=O)(=O)O [homotaurine, 3-aminopropanesulfonic acid]
[6]
  antagonism of neurotoxic or convulsant activity of kainic acid: antagonises the neurotoxic or convulsant activity of kainic acid
[7]
  reduction of the neurotoxic effect of kainic acid (wet dog shaking): no significant reduction
insulin
  potentiation of the hypoglycemic activity of insulin, intravenous: active intravenously
  potentiation of the hypoglycemic activity of insulin, oral: not orally active
  oral activity after the metabolic and neurologic tests: inactive

## [Ca+2].[Cl-].[Cl-] [CaCl2, reference compound]
Swiss I.O.P.S. mice
  B/P ratio (oral LD50 / i.p. LD50): > 9.2
  LD50 by gastric tubage (B): greater than 36.5 mmol/kg

## Cc1ncc(CO)c(CNCCCS(=O)(=O)[O-])c1O.[K+]
Solubility
  solubility in acetone: Insoluble
  solubility in water: Soluble
In vivo; Swiss I.O.P.S. mouse
  selectivity ratio: 1.19
In vivo; [9]
  LD50: 14200 µmol/kg
In vivo; [10]
  LD50: 17000 µmol/kg
[8]; read-out: ED50 rolling
  ED50: 270 µmol/kg
[8]; read-out: ED50 trembling
  ED50: 270 µmol/kg
[8]; test of Frances et al.
  activity relative to taurine: 17 times

## Cc1ncc(CO)c(C=NCCS(=O)(=O)O)c1O [Example 1, Sodium β-(3-hydroxy-5-hydroxymethyl-2-methyl-4-pyridylmethyleneimino)ethanesulfonate]
Solubility
  solubility in alcohol / ethanol: Insoluble
[4]
  selectivity ratio: 2.33
[4]; ip, read-out: LD50 i.p. (P)
  LD50: 3000 µmol/kg
[4]; [12]
  LD50: 7000 µmol/kg

## Cc1ncc(CO)c(CNCCS(=O)(=O)[O-])c1O.[K+]
Solubility
  solubility in acetone: Insoluble
  solubility in water: Soluble
In vivo; Swiss I.O.P.S. mouse
  selectivity ratio: 1.2
In vivo; [9]
  LD50: 13000 µmol/kg
In vivo; [10]
  LD50: 15700 µmol/kg

## Cc1ncc(CO)c(C=NCCCS(=O)(=O)O)c1O [lithium γ-(3-hydroxy-5-hydroxymethyl-2-methyl-4-pyridylmethy] [lithium γ-(3-hydroxy-5-hydroxymethyl-2-methyl-4-pyridylmethyleneimino)propanesulfonate]
Solubility; acetone
  solubility in acetone: insoluble
Solubility; water
  solubility in water: soluble

## [Cl-].[Na+] [sodium chloride, reference compound]
[4]
  B/P ratio (oral LD50 / i.p. LD50): > 3.36
[4]; oral
  LD50 by gastric tubage (B): greater than 205.4 mmol/kg

## NCCS(=O)(=O)O [Taurine, 2-aminoethanesulfonic acid]
[7]
  reduction of the neurotoxic effect of kainic acid (wet dog shaking): no significant reduction
[8]; read-out: ED50 rolling
  ED50: 4670 µmol/kg
[8]; read-out: ED50 trembling
  ED50: 4340 µmol/kg
insulin
  potentiation of the hypoglycemic activity of insulin, intravenous: active intravenously
  potentiation of the hypoglycemic activity of insulin, oral: not orally active
  oral activity after the metabolic and neurologic tests: inactive

## Cc1ncc(CO)c(CNCCCS(=O)(=O)[O-])c1O.[Li+]
Solubility
  solubility in acetone: insoluble
  solubility in water: soluble
